Each block holds one compound with its values, some of them ahead of it.
Columns and labels:
[1] = patients' assessment of local tolerability (5-point scale) and adverse events; assay type: in vivo, human; conditions: for assessments of local tolerability graded "acceptable" / assessments of local tolerability graded "poor" / assessments of local tolerability graded "well": percentage of all patient assessments over the study visits, topical
Experimental: • Safety laboratory parameters • Clinical safety examinations • Adverse events • Patient's assessment of local tolerability according to a 5-point scale.
In addition to the assessment of the therapeutical efficacy, the patients' assessments of local tolerability and the side effect profile was recorded in this clinical study described in example 1. FIG. 4 summarizes the patients' assessments of local tolerability which was recorded on each visit of the patients during the study period which took place on days 14, 24, 56 and 85. The patients assessed their perception of local tolerability according to the following grading scheme: […]

[2] = system: mild to moderate facial acne vulgaris; test: double-blind, randomized clinical study: counting of facial acne lesions; assay type: in vivo, human; conditions: for patients displaying for the first time a reduction of ≧30% in the total counts of all acne lesions: topical once daily, VPA 3% gel, isotretinoin 0.05% gel; for mean reduction of the number of acne lesions: day 85 compared to baseline (day 1), topical monotherapy
Experimental: This study was carried out as a double-blind, randomized study. Under informed consent patients with mild to moderate facial acne vulgaris were enrolled in the study. The treatment period was 12 weeks.
(§1) VPA was provided as a clear off-white, semi-solid 3% gel (30 mg/ml VPA). After washing the face with a mild cleanser, the gel was applied daily to the clean and dry skin once daily.
As a comparator reference therapy the retinoid isotretinoin was provided as a 0.05% gel (0.5 mg isotretinoin/g).
• Assessment of the therapeutic efficacy compared to the baseline was evaluated separately by the investigator and by the patient according to a 7-point scale • Counting of lesions in the entire face • Investigator's overall assessment of improvement by means of a photo documentation.
• efficacy: change of total count of facial acne lesions from baseline to the end of week 12 (comparing day 1 to day 85, i.e., d1, d85)
• efficacy: time to reduction of acne lesions by >30% • count of acne lesions in the face after 2, 4, 8 and 12 weeks of treatment and its percentage and absolute change to baseline • safety/tolerability: safety laboratory parameters • clinical safety • patient's assessment of local tolerability
In the clinical study described in Example 1, also the time to reduction of the total counts by ≧30% of all acne lesions treated was investigated on each visit of the patients to the study hospital. Once the reduction had reached ≧30%, the actual at this point estimated reduction rate and the day of the visit was recorded.
In the clinical study described in Example 1, the counts of acne lesions treated were also assessed as counts of different types of lesions separately, i.e., recording the number of inflammatory lesions, and recording the number of non-inflammatory lesions separately.

[3] = VPA content in blood (serum) after topical application, HPLC; assay type: in vivo; conditions: human, read-out: serum level of VPA
Experimental: as §1
In parallel, an analysis of the VPA content in the blood of acne vulgaris patients treated topically with a 3% VPA containing medication was performed using HPLC based methodology, and the results are presented in FIG. 3. […] These serum concentration levels were measured after daily treatment with up to approx. 2.000 mg of a 3% VPA containing medication topically applied which refers to a total daily dose of VPA approx. 60 mg. If more or larger lesions would be treated, and therefore higher daily amounts of VPA would be topically applied, it is expected that accordingly higher serum levels may be obtained.

Compound: CC1=C(/C=C/C(C)=C/C=C/C(C)=C\C(=O)O)C(C)(C)CCC1 [isotretinoin]
assessments of local tolerability graded "acceptable" [1]: 40.5%
assessments of local tolerability graded "poor" [1]: 11.9%
assessments of local tolerability graded "well" [1]: 38.1%
patients displaying for the first time a reduction of ≧30% in the total counts of all acne lesions ([2]; day 28): three
patients displaying for the first time a reduction of ≧30% in the total counts of all acne lesions ([2]; day 85): two
mean reduction of the number of acne lesions [2]: approx. 54%

concentration at 56 day ([3]; day 56, daily topical up to approx. 2.000 mg of 3% VPA medication (approx. 60 mg VPA)): ≤ 2440 ng/mL
concentration at 85 day ([3]; day 85, daily topical up to approx. 2.000 mg of 3% VPA medication (approx. 60 mg VPA)): ≤ 1590 ng/mL
Compound: CCCC(CCC)C(=O)O [VPA, 2-propyl-pentanoic acid]
adverse events observed ([1]; patients treated topically, all resolved after end of study): mild to moderate administration site conditions
assessments of local tolerability graded "acceptable" [1]: 23.8%
assessments of local tolerability graded "poor" [1]: 4.8%
assessments of local tolerability graded "well" [1]: 61.9%
patients displaying for the first time a reduction of ≧30% in the total counts of all acne lesions ([2]; day 28): three
patients displaying for the first time a reduction of ≧30% in the total counts of all acne lesions ([2]; day 85): two
mean reduction of the number of acne lesions [2]: approx. 57%
median counts of inflammatory lesions ([2]; end of treatment day 85, day 1 before treatment 30): 14.4 lesions
median counts of non-inflammatory lesions ([2]; end of treatment day 85, day 1 before treatment 41): 11.5 lesions

From patent US20090186809A1, “USE OF VALPROIC ACID FOR THE TOPICAL TREATMENT OF MILD TO MODERATE ACNE VULGARIS” (TOPOTARGET GERMANY AG, priority 2006, published 2009)
